The text below walks through data of publication PMC8584173, “The Cytotoxic Effect of Copper (II) Complexes with Halogenated 1,3-Disubstituted Arylthioureas on Cancer and Bacterial Cells” (International Journal of Molecular Sciences, 2021).

For orientation: MIC means the lowest concentration found to suppress growth. A lower MIC goes with inhibition by little substance. By IC50 is commonly meant the midpoint of a concentration-inhibition curve.

Bounds are passed on as bounds.

Assay [1] concerns clinical methicillin-resistant strains of S. aureus (MRSA) and S. epidermidis (MRSE). The assay is described as follows: MIC, clinical strains. In kind it is cell-based, Staphylococcus. Here is the method:
The antimicrobial activity of the compounds was tested on Gram-positive bacteria (Staphylococcus aureus NCTC 4163, Staphylococcus aureus ATCC 25923, Staphylococcus aureus ATCC 6538, Staphylococcus aureus ATCC 29213, Staphylococcus epidermidis ATCC 12228, Staphylococcus epidermidis ATCC 35984), Gram-negative rods (Escherichia coli ATCC 10538, Escherichia coli ATCC 25922, Pseudomonas aeruginosa ATCC 15442, Pseudomonas aeruginosa ATCC 27863) and yeasts (Candida albicans ATCC 10231, Candida albicans ATCC 90028, Candida parapsilosis ATCC 22019). Hospital methicillin-resistant strains of Staphylococcus aureus and Staphylococcus epidermidis were obtained from the collection of the Department of Pharmaceutical Microbiology, Medical University of Warsaw, Poland.
Antifungal activities were assessed using Mueller–Hinton agar + 2% glucose and 0.5 µg/mL methylene blue dye medium. Sterile filter paper discs (9 mm diameter, Whatman Number 3 chromatography paper) were dripped with tested compound solutions (in dimethylsulfoxide, DMSO) to load 400 μg of a given compound per disc. Dry discs were placed on the surface of appropriate agar medium. The results (diameter of the growth inhibition zone) were read after 18 h of incubation at 35 °C. Minimal inhibitory concentration (MIC) was tested by the twofold serial microdilution method (in 96-well microtiter plates) using Mueller–Hinton broth medium (Beckton Dickinson) for bacteria or RPMI-1640 medium for Candida species, according to CLSI guidelines. The stock solution of tested agent was prepared in DMSO and diluted in sterile water. […] The final inoculum of all studied microorganisms was 10^5 CFU/ mL^−1 (colony forming units per ml). Minimal inhibitory concentrations (the lowest concentration of a tested agent that prevents visible growth of a microorganism) were read after 18 h (bacteria) or 24 h (yeasts) of incubation at 35 °C.

Assay [2] relates to Glutathione S-transferase A1 (GSTA1_HUMAN). The assay is described as follows: LC–MS proteome analysis, GSTA1. In kind it is cell-based, Homo sapiens. Conditions: for Protein Intensity, % (GSTA1): IC50 concentration, % of control; for decrease in the amount of GSTA1: SW620, IC50 concentration. Here is the method:
(§1) Enzymes involved in oxidoreductive potential were analyzed in the cell lysates obtained after treatment cells with selected conjugates for 24 h. Cells were washed with phosphate-buffered saline (PBS) and harvested, then centrifuged at 1000× g for 10 min. Then, lysis buffer (containing protease inhibitor, 1% RIPA Lysis and Extraction Buffer (ThermoFisher)) and cold PBS were added, and samples were sonicated three times in ice bath. Next, the cell lysates were centrifuged at 14,000× g at 4 °C for 15 min, and then supernatants were stored at […] before use. Protein concentration was measured by the Bradford method.
(§2) Normalized protein concentrations (5 µg) from cell lysate were precipitated by ice cold (–20 °C) acetonitrile (ACN, Merck, in ratio 1:4). Then, samples were centrifuged (–9 °C, 30 min., 18,000× g), the supernatant was discarded and ACN excess was evaporated using a vacuum centrifuge (5 min., room temp.). Protein pellet was dissolved in 40 mM ammonium bicarbonate. An amount of 500 mM dithiothreitol (DTT, with final concentration 20 mM) and 1 M iodoacetamide (IAA, with final concentration 40 mM) were used for reduction and alkylation processes. After 16 h of incubation in 37 °C with Trypsin Gold (Promega), digested protein samples were diluted with 0.1% formic acid (ThermoFisher) and centrifuged (+2 °C, 30 min, 18,000× g).
(§3) LC–MS analysis was carried out with the use of nanoUHPLC (nanoElute, Bruker) coupled by CaptiveSpray (Bruker) to ESI-Q-TOF mass spectrometer (Compact, Bruker). Two-column separation method was used, i.e., pre-column (300 µm × 5 mm, C18 PepMap 100, 5 µm, 100Å, Thermo Scientific) and Aurora separation column with CSI fitting (75 µm × 250 mm, C18 1.6 µm) in gradient 2% B to 35% B in 90 min with the 300 nL/min flow rate. Mobile phases (A) 0.1% formic acid in water and (B) 0.1% formic acid in ACN were used.
(§4) Sample ionizations were performed at a gas flow of 3.0 L/min, temperature of 150 °C and voltage of the capillary at 1600 V. The quadrupole energy was fixed to 5.0 eV and collision chamber energy 7.0 eV, with an ion transfer time of 90 µs. The ions were analyzed in the positive polarity mode in the range 150–2200 m/z, with the acquisition frequency of the 1 Hz spectrum, as well as with the autoMS/MS system.
(§5) The collected spectra were analyzed and calibrated using DataAnalysis software (Bruker) and then identified in ProteinScape (Bruker) by the MASCOT server. Protein identification was conducted using the online SwissProt and NCBIprot databases, and their references and biological significance were identified using Reactome.org, String.org and KEGG.

For a further assay, the system named is SW480 cells. As to the kind of experiment: Annexin V-FITC/PI flow cytometry, SW480. It counts as cell-based, human. Conditions: for apoptosis of SW480 cells: at 4 μM (supplement text). Here is the method:
The cells were cultured and harvested under the conditions described in the cell culture section. […] The effect of these compounds on the process of early and late apoptosis and necrosis was determined, as described previously, by dual staining with annexin V-FITC and propidium iodide according to manufacturer’s protocol (Becton Dickinson). The cells that were annexin V-FITC positive and PI-negative were identified as early apoptotic and annexin V-FITC and PI-positive as late apoptotic or necrotic.

The test system of assay [3] is Thioredoxin-dependent peroxide reductase, mitochondrial (PRDX3_HUMAN). The assay is described as follows: LC–MS proteome analysis, PRDX3. Conditions: IC50 concentration, % of control. It counts as cell-based, Homo sapiens. Here is the method: as §1, §2, §3, §4, §5
The subject of assay [4] is SW480, SW620, PC3 cancer cells. The assay is described as follows: MTT cytotoxicity assay, all cancer cell lines. In kind it is cell-based, human. Conditions: span or bound over SW480, SW620, PC3; 72 h; read-out: IC50 over the tested cancer cell lines. Here is the method:
The human primary (SW480), metastatic (SW620) colon cancer, metastatic prostate cancer (PC3) and human immortal keratinocyte (HaCaT) cell lines were purchased from the American Type Culture Collection (ATCC, Rockville, USA). The cells were cultured in medium according to protocols (MEM for SW480 and SW620, RPMI 1640 for PC3 and DMEM for HaCaT cells) supplemented with 10% fetal bovine serum (FBS), penicillin (100 U/mL) and streptomycin (100 μg/mL) and cultured in 37 °C/ 5% CO2 humidified incubator. The cells were cultured until appropriate confluence was achieved (80–90%). Next, they were harvested by treatment with 0.25% trypsin (Gibco Life Technologies, USA) and used for studies.
Cells without studied compounds in medium were used as a control.
The cell viability was assessed by determination of MTT salt (3-(4,5-dimethylthiazol-2-yl)-2,5-diphenyltetrazolium bromide) conversion by mitochondrial dehydrogenase. MTT assay was performed as previously described. Experiments were repeated three times. Cell viability was presented as a percentage of MTT reduction in the treated cells versus the control cells. Number of viable cells cultured without studied compounds was assumed to be 100%. Decreased relative MTT level means decreased cell viability. Thiourea complexes with the highest cytotoxic potential assessed by MTT determination (with the lowest IC50) were chosen for subsequent assessments of cytotoxicity mechanisms.
(Tetrazolium dyes change colour on reduction, which living cells bring about.)

On to `O=[N+]([O-])c1cc([N+]2=C(Nc3cccc(Br)c3)[S][Cu-2]23[S]C(Nc2cccc(Br)c2)=[N+]3c2ccc(Cl)c([N+](=O)[O-])c2)ccc1Cl` [Compound 2, Copper (II) complex with 1-(3-bromophenyl)-3-(4-chloro-3-nitrophenyl)thiourea], for which, in assay [1], the MIC lay in the range of 4 to 8 µg/mL.
As to `O=[N+]([O-])c1cc([N+]2=C(Nc3ccc(I)cc3)[S][Cu-2]23[S]C(Nc2ccc(I)cc2)=[N+]3c2ccc(Cl)c([N+](=O)[O-])c2)ccc1Cl` [Compound 8, Copper (II) complex with 1-(4-iodophenyl)-3-(4-chloro-3-nitrophenyl)thiourea], the “Protein Intensity, % (GSTA1)” value came out at 73.5% in assay [2] (PC3, 24 h); 91.6% in assay [2] (SW480, 24 h); 54.3% in assay [2] (SW620, 24 h). For the same compound, in assay [2], the “decrease in the amount of GSTA1” value turned out to be 45.7%. In assay [1], this compound registered an MIC of 4 to 8 µg/mL. In the assay on SW480 cells (SW480, IC50 dose, 72 h), the “early apoptosis, % of cells” value is given as 48.9% ± 3.4%. The “late apoptosis, % of cells” value in the assay with SW480 cells (SW480, IC50 dose, 72 h) was 20.7% ± 2.8%. In the assay with SW480 cells, the “apoptosis of SW480 cells” value is listed as 47%. Besides, the “Protein Intensity, % (PRDX3)” value in assay [3] (PC3, 24 h) came out at 24.8%; in assay [3] (SW480, 24 h), 96.3%; in assay [3] (SW620, 24 h) it was 95.2%.
Regarding `O=[N+]([O-])c1cc([N+]2=C(Nc3ccccc3F)[S][Cu-2]23[S]C(Nc2ccccc2F)=[N+]3c2ccc(Cl)c([N+](=O)[O-])c2)ccc1Cl` [Compound 7, Copper (II) complex with 1-(2-fluorophenyl)-3-(4-chloro-3-nitrophenyl)thiourea], the “Protein Intensity, % (GSTA1)” value in assay [2] (PC3, 24 h) came out at 79.2%; in assay [2] (SW480, 24 h), 75.6%; in assay [2] (SW620, 24 h), 36.4%. The compound also returned an MIC in assay [1] of 4 to 8 µg/mL. For the same compound, the IC50 in assay [4] was no more than 10 µM. Besides, the “early apoptosis, % of cells” value in the assay on SW480 cells (SW480, IC50 dose, 72 h) was no more than 40%. Further, the “Protein Intensity, % (PRDX3)” value is 12.4% in assay [3] (PC3, 24 h); 90.4% in assay [3] (SW480, 24 h); 61.2% in assay [3] (SW620, 24 h).
Consider `O=[N+]([O-])c1cc([N+]2=C(Nc3ccc(F)c(Cl)c3)[S][Cu-2]23[S]C(Nc2ccc(F)c(Cl)c2)=[N+]3c2ccc(Cl)c([N+](=O)[O-])c2)ccc1Cl` [Compound 4, Copper (II) complex with 1-(3-chloro-4-fluorophenyl)-3-(4-chloro-3-nitrophenyl)thiourea], for which the minimum inhibitory concentration (MIC) in assay [1] fell in the range of 4 to 8 µg/mL.
In the case of `O=[N+]([O-])c1cc(NC2=[N+](c3ccc(Cl)c([N+](=O)[O-])c3)[Cu-2]3([S]2)[S]C(Nc2ccc(Cl)c([N+](=O)[O-])c2)=[N+]3c2ccc(Cl)c([N+](=O)[O-])c2)ccc1Cl` [Compound 6, Copper (II) complex with 1,3-bis(4-chloro-3-nitrophenyl)thiourea], the IC50 in assay [4] is no less than 20.3 µM.
Regarding `O=[N+]([O-])c1cc([N+]2=C(Nc3ccc(Br)cc3)[S][Cu-2]23[S]C(Nc2ccc(Br)cc2)=[N+]3c2ccc(Cl)c([N+](=O)[O-])c2)ccc1Cl` [Compound 3, Copper (II) complex with 1-(4-bromophenyl)-3-(4-chloro-3-nitrophenyl)thiourea], the “Protein Intensity, % (GSTA1)” value in assay [2] (PC3, 24 h) was found to be 70.6%; in assay [2] (SW480, 24 h), 86.6%; in assay [2] (SW620, 24 h) it was 45.2%. In addition, the “decrease in the amount of GSTA1” value in assay [2] was 54.8%. The IC50 in assay [4] was no more than 10 µM. Further, the “early apoptosis, % of cells” value with SW480 cells (SW480, IC50 dose, 72 h) is no more than 40%. Further, the “Protein Intensity, % (PRDX3)” value in assay [3] (PC3, 24 h) came out at 57.3%; in assay [3] (SW480, 24 h), 85.4%; in assay [3] (SW620, 24 h), 67.5%.
As to `O=[N+]([O-])c1cc([N+]2=C(Nc3ccc(Cl)c(Cl)c3)[S][Cu-2]23[S]C(Nc2ccc(Cl)c(Cl)c2)=[N+]3c2ccc(Cl)c([N+](=O)[O-])c2)ccc1Cl` [Compound 5, Copper (II) complex with 1-(4-chloro-3-nitrophenyl)-3-(3,4-dichlorophenyl)thiourea], the IC50 in assay [4] was no more than 10 µM.
Consider `O=[N+]([O-])c1cc([N+]2=C(Nc3ccccc3Br)[S][Cu-2]23[S]C(Nc2ccccc2Br)=[N+]3c2ccc(Cl)c([N+](=O)[O-])c2)ccc1Cl` [Compound 1, Copper (II) complex with 1-(2-bromophenyl)-3-(4-chloro-3-nitrophenyl)thiourea], for which the “Protein Intensity, % (GSTA1)” value in assay [2] (PC3, 24 h) stood at 84.4%; in assay [2] (SW480, 24 h), 78.3%; in assay [2] (SW620, 24 h), 50.2%. The compound further had an MIC in assay [1] of 4 to 8 µg/mL. The “early apoptosis, % of cells” value in the assay on SW480 cells (SW480, IC50 dose, 72 h) is on record as 45.18% ± 3.9%. Also, in the assay with SW480 cells, the “apoptosis of SW480 cells” value is on record as 47%. Also, the “Protein Intensity, % (PRDX3)” value in assay [3] (PC3, 24 h) is 69.5%; in assay [3] (SW480, 24 h) it was 95.2%; in assay [3] (SW620, 24 h), 69.9%.
